What all share (format): cell-based
In assay [1] the test system is MCF7 cells. The assay can be described thus: Anti-proliferation (viability) of MCF7 cells (Table 7, FIG. 2B). The note with it: Homo sapiens, MCF7, MCF7 cells, 3-6 days, 10-point serial dilution; read-out: GI IC50 in MCF-7.
Assay [2] deals with Calu-1 cells. The experiment in a line: Anti-proliferation (viability) of NSCLC Calu-1 cells, 3 days (Table 7, FIG. 2B). Particulars: Homo sapiens, 72 h; Calu-1 cells, 3 days, 10-point serial dilution; read-out: GI IC50 in Calu-1. In outline:
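Heterobifunctional compounds are tested in 10-point serial dilutions on Calu-1 (3-day exposure) and T47D (6-day exposure) cells.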

Assay [3] deals with CDK4 (Homo sapiens, UniProt P11802+Q16531). The assay can be described thus: HiBiT detection of HiBiT-tagged CDK4 protein level in MCF7 cells, 16 hours (Table 8). Also on record: expressed in transfected cells; host or cells: MCF7. The note with it: MCF7 cells stably expressing HiBiT tagged target proteins; for activity at 0.01 µM: 10 nM, read-out: % CDK4 Relative Level (10 nM); for activity at 0.1 µM: 100 nM, read-out: % CDK4 Relative Level (100 nM). The protocol:
HiBiT detection system quantitatively measures total amounts of HiBiT-tagged proteins using a luminescent based method. MCF7 cells stably expressing HiBiT tagged target proteins were treated with heterobifunctional compounds at indicated concentrations for 16 hours, then lysed with Nano-Glo HiBiT Lytic detection reagents.
A general note: HiBiT is a short tag that completes a luciferase, so light tracks the accessible tagged protein.

This passage reports IC50 and activity results from patent US20260297081A1, “COMPOUNDS AND METHODS OF TREATING CANCERS” (Cullgen Inc., priority 2023, published 2026).

Molecules are shown by their SMILES.

For orientation: IC50 means the concentration that gives 50% inhibition.

Chain of CDK4 (P11802 whole entry): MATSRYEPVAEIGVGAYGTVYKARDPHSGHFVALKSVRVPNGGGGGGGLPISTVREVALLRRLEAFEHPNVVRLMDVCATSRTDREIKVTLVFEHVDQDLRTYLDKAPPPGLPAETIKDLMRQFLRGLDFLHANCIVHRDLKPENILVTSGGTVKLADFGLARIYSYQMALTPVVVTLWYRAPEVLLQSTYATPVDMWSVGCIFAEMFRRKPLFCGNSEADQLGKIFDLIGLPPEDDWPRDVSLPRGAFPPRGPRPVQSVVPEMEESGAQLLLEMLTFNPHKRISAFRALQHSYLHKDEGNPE
Chain of CDK4 (P24385 whole entry partner): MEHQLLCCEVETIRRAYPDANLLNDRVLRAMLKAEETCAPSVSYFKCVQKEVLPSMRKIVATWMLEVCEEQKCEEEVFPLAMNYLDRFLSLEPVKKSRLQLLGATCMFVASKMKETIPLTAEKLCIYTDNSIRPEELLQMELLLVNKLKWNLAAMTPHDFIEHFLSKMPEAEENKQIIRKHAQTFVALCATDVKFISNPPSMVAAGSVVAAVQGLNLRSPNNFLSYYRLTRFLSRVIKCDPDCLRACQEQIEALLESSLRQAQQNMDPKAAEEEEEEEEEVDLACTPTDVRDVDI
Chain of CDK4 (Q16531 2-1140 limits assumed): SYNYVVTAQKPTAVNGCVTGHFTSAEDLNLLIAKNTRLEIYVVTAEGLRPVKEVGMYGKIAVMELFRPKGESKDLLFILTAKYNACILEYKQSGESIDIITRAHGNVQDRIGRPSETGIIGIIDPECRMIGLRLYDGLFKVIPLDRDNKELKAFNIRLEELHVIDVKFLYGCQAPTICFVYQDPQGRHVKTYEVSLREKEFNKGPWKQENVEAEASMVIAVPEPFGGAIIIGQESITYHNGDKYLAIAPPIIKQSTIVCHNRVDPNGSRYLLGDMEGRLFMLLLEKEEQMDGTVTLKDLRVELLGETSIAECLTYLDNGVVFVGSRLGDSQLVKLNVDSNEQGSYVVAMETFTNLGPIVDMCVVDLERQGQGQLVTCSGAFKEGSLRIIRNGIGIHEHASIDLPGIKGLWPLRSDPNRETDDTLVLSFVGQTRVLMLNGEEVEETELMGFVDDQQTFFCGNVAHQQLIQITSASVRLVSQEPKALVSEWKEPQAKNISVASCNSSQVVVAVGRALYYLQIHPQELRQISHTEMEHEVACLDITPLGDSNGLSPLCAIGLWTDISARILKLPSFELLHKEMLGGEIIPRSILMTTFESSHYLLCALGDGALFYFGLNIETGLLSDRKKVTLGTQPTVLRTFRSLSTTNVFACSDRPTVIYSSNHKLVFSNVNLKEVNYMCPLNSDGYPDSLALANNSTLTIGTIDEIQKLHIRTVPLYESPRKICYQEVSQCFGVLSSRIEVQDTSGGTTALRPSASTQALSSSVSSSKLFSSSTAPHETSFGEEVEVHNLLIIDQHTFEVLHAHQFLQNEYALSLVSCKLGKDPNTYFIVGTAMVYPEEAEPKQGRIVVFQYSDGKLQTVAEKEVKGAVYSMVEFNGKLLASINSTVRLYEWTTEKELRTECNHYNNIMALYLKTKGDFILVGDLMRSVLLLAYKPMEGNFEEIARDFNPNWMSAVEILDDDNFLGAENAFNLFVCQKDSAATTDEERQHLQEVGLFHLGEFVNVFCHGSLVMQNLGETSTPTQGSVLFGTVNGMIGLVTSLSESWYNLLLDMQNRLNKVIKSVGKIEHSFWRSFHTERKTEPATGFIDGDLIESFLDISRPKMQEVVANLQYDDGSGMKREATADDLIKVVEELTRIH

Turning to `CC(=O)c1c(C)c2cnc(Nc3ccc(N4CCC(N(C)CC(=O)NC56CC(Nc7nc(NC(C)C)ccc7C(=O)Nc7ccc(N(C)C)nn7)(C5)C6)CC4)cn3)nc2n(C2CCCC2)c1=O` [CPD-505, 2-((3-(2-((1-(6-((6-acetyl-8-cyclopentyl-5-methyl-7-oxo-7,8-dihydropyrido[2,3-d]pyrimidin-2-yl)amino)pyridin-3-yl)piperidin-4-yl)(methyl)amino)acetamido)bicyclo[1.1.1]pentan-1-yl)amino)-N-(6-(dimethylamino)pyridazin-3-yl)-6-(isopropylamino)nicotinamide], in assay [1], the IC50 is under 50 nM. In assay [2], the IC50 is at most 10 nM. In addition, in assay [3], the activity at 0.01 µM was over 85% and the activity at 0.1 µM was over 85%.
For the compound `CC(=O)c1c(C)c2cnc(Nc3ccc(N4CCN(CCNC(=O)C56CC(Nc7nc(NC(C)C)ccc7C(=O)Nc7ccc(N(C)C)nn7)(C5)C6)CC4)cn3)nc2n(C2CCCC2)c1=O` [CPD-506, 2-((3-((2-(4-(6-((6-acetyl-8-cyclopentyl-5-methyl-7-oxo-7,8-dihydropyrido[2,3-d]pyrimidin-2-yl)amino)pyridin-3-yl)piperazin-1-yl)ethyl)carbamoyl)bicyclo[1.1.1]pentan-1-yl)amino)-N-(6-(dimethylamino)pyridazin-3-yl)-6-(isopropylamino)nicotinamide], the IC50 in assay [1] is under 50 nM. Besides, the IC50 in assay [2] is at most 10 nM. In assay [3], the activity at 0.01 µM was over 85% and the activity at 0.1 µM was over 85%.
For the compound `CC(=O)c1c(C)c2cnc(Nc3ccc(CN4CCN(CC(=O)N5CC6(CCC(Nc7nc(NC(C)C)ccc7C(=O)Nc7ccc(N(C)C)nn7)C6)C5)CC4)cn3)nc2n(C2CCCC2)c1=O` (stereo not shown) [CPD-515, 2-((2-(2-(4-((6-((6-acetyl-8-cyclopentyl-5-methyl-7-oxo-7,8-dihydropyrido[2,3-d]pyrimidin-2-yl)amino)pyridin-3-yl)methyl)piperazin-1-yl)acetyl)-2-azaspiro[3.4]octan-6-yl)amino)-N-(6-(dimethylamino)pyridazin-3-yl)-6-(isopropylamino)nicotinamide], the IC50 in assay [1] is under 50 nM. The IC50 in assay [2] is at most 10 nM. In assay [3], the activity at 0.01 µM is over 85% and the activity at 0.1 µM is over 85%.
For `CC(=O)c1c(C)c2cnc(Nc3ccc(N4CCN(C5CCN(C(=O)[C@H]6CC[C@H](Nc7nc(NC(C)C)ccc7C(=O)Nc7cc8n(n7)CCC8)CC6)C5)CC4)cn3)nc2n(C2CCCC2)c1=O` (stereo partly drawn) [CPD-520, 2-((trans-4-(3-(4-(6-((6-acetyl-8-cyclopentyl-5-methyl-7-oxo-7,8-dihydropyrido[2,3-d]pyrimidin-2-yl)amino)pyridin-3-yl)piperazin-1-yl)pyrrolidine-1-carbonyl)cyclohexyl)amino)-N-(5,6-dihydro-4H-pyrrolo[1,2-b]pyrazol-2-yl)-6-(isopropylamino)nicotinamide], the IC50 in assay [1] is under 50 nM. Also, the IC50 in assay [2] is at most 10 nM. In assay [3], the activity at 0.01 µM is over 85% and the activity at 0.1 µM was over 85%.
Turning to `CC(=O)c1c(C)c2cnc(Nc3ccc(N4CCN(CC(=O)N(C)CC56CC(Nc7nc(NC(C)C)ccc7C(=O)Nc7ccc(N(C)C)nn7)(C5)C6)CC4)cn3)nc2n(C2CCCC2)c1=O` [CPD-525, 2-((3-((2-(4-(6-((6-acetyl-8-cyclopentyl-5-methyl-7-oxo-7,8-dihydropyrido[2,3-d]pyrimidin-2-yl)amino)pyridin-3-yl)piperazin-1-yl)-N-methylacetamido)methyl)bicyclo[1.1.1]pentan-1-yl)amino)-N-(6-(dimethylamino)pyridazin-3-yl)-6-(isopropylamino)nicotinamide], the concentration for half-maximal inhibition (IC50) in assay [1] is under 50 nM. Moreover, the IC50 in assay [2] is at most 10 nM. In addition, in assay [3], the activity at 0.01 µM is over 85% and the activity at 0.1 µM was over 85%.
With `CC(=O)c1c(C)c2cnc(Nc3ccc(N4CCC5(CCN(CC(=O)N6CC7(CC(Nc8nc(NC(C)C)ccc8C(=O)Nc8cc9n(n8)CCC9)C7)C6)C5)C4)cn3)nc2n(C2CCCC2)c1=O` (stereo not shown) [CPD-529, 2-((2-(2-(7-(6-((6-acetyl-8-cyclopentyl-5-methyl-7-oxo-7,8-dihydropyrido[2,3-d]pyrimidin-2-yl)amino)pyridin-3-yl)-2,7-diazaspiro[4.4]nonan-2-yl)acetyl)-2-azaspiro[3.3]heptan-6-yl)amino)-N-(5,6-dihydro-4H-pyrrolo[1,2-b]pyrazol-2-yl)-6-(isopropylamino)nicotinamide], the IC50 in assay [1] is under 50 nM; in assay [2], at most 10 nM. Also, the activity at 0.01 µM in assay [3] is over 85%. Moreover, in assay [3], the activity at 0.1 µM was over 85%.
Consider `[2H]C([2H])([2H])Nc1ccc(C(=O)Nc2cccc(OC)n2)c(NC2CC3(C2)CN(C(=O)CC(N2CCN(c4ccc(Nc5ncc6c(C)c(C(C)=O)c(=O)n(C7CCCC7)c6n5)nc4)CC2)C(F)(F)F)C3)n1` (stereo not shown) [CPD-531, 2-((2-(3-(4-(6-((6-acetyl-8-cyclopentyl-5-methyl-7-oxo-7,8-dihydropyrido[2,3-d]pyrimidin-2-yl)amino)pyridin-3-yl)piperazin-1-yl)-4,4,4-trifluorobutanoyl)-2-azaspiro[3.3]heptan-6-yl)amino)-N-(6-methoxypyridin-2-yl)-6-((methyl-d3)amino)nicotinamide], for which the IC50 in assay [1] is under 50 nM; in assay [2] it was at most 10 nM. Moreover, the activity at 0.01 µM in assay [3] lay within 55 to 85%. For the same compound, the activity at 0.1 µM in assay [3] lay in the range of 55 to 85%.
Consider `COc1cccc(NC(=O)c2ccc(NC(C)C)nc2NC2CC3(C2)CN(C(=O)CN2CCC4(CCN(c5ccc(Nc6ncc7c(C)c(C(C)=O)c(=O)n(C8CCCC8)c7n6)nc5)C4)C2)C3)n1` (stereo not shown) [CPD-532, 2-((2-(2-(7-(6-((6-acetyl-8-cyclopentyl-5-methyl-7-oxo-7,8-dihydropyrido[2,3-d]pyrimidin-2-yl)amino)pyridin-3-yl)-2,7-diazaspiro[4.4]nonan-2-yl)acetyl)-2-azaspiro[3.3]heptan-6-yl)amino)-6-(isopropylamino)-N-(6-methoxypyridin-2-yl)nicotinamide], for which the values for the 50% inhibitory concentration (IC50) in assay [1] and in assay [2] were under 50 nM and at most 10 nM, respectively. Moreover, the activity at 0.01 µM in assay [3] was in the range of 55 to 85%. In addition, in assay [3], the activity at 0.1 µM was 55 to 85%.
On to `COC1(C(=O)N2CCC(N3CCN(c4ccc(Nc5ncc6c(C)c(C(C)=O)c(=O)n(C7CCCC7)c6n5)nc4)CC3)C2)CCC(Nc2nc(NC(C)C)ccc2C(=O)Nc2ccc(N(C)C)nn2)CC1` (stereo not shown) [CPD-536, 2-((4-(3-(4-(6-((6-acetyl-8-cyclopentyl-5-methyl-7-oxo-7,8-dihydropyrido[2,3-d]pyrimidin-2-yl)amino)pyridin-3-yl)piperazin-1-yl)pyrrolidine-1-carbonyl)-4-methoxycyclohexyl)amino)-N-(6-(dimethylamino)pyridazin-3-yl)-6-(isopropylamino)nicotinamide], for which, in assay [1], the half-maximal inhibitory concentration (IC50) is under 50 nM. Also, the IC50 in assay [2] was at most 10 nM. For the same compound, in assay [3], the activity at 0.01 µM is over 85% and the activity at 0.1 µM lay in the range of 55 to 85%.
In the same order, the values of `CC(=O)c1c(C)c2cnc(Nc3ccc(N4CCN(C5CCN(C(=O)CC67CC(Nc8nc(NC(C)C)ccc8C(=O)Nc8ccc(N(C)C)nn8)(C6)C7)C5)CC4)cn3)nc2n(C2CCCC2)c1=O` (stereo not shown) [CPD-537, 2-((3-(2-(3-(4-(6-((6-acetyl-8-cyclopentyl-5-methyl-7-oxo-7,8-dihydropyrido[2,3-d]pyrimidin-2-yl)amino)pyridin-3-yl)piperazin-1-yl)pyrrolidin-1-yl)-2-oxoethyl)bicyclo[1.1.1]pentan-1-yl)amino)-N-(6-(dimethylamino)pyridazin-3-yl)-6-(isopropylamino)nicotinamide] are under 50 nM, at most 10 nM, over 85% and over 85%.
